From patent US8937092B2, “Aryl or N-heteroaryl substituted methanesulfonamide derivatives as vanilloid receptor ligands” (Gruenenthal GmbH, priority 2011, dated 2015)

Molecular target: vanilloid receptor 1 (VR1/TRPV1 receptor) (Homo sapiens, UniProt Q8NER1)
Assay: Functional FLIPR Ca2+ influx assay on vanilloid receptor 1, capsaicin (Cap) stimulus
Assay type: cell-based
Details: for Ki: Ki from IC50 by Cheng-Prusoff, read-out: (f) Ki (human being) [nM], Cap; for inhibition at 5 µM: read-out: (f) inhibition (human being), Cap, @5 μM
Experimental: Furthermore, preference may be given to compounds according to the invention that cause a 50 percent displacement of capsaicin, which is present at a concentration of 100 nM, in a FLIPR assay with CHO K1 cells which were transfected with the human VR1 gene at a concentration of less than 2,000 nM, preferably less than 1,000 nM, particularly preferably less than 300 nM, most particularly preferably less than 100 nM, even more preferably less than 75 nM, additionally preferably less than 50 nM, most preferably less than 10 nM.
In the process, the Ca^2+ influx is quantified in the FLIPR assay with the aid of a Ca^2+-sensitive dye (type Fluo-4, Molecular Probes Europe BV, Leiden, the Netherlands) in a fluorescent imaging plate reader (FLIPR, Molecular Devices, Sunnyvale, USA), as described hereinafter.
Pharmacological Methods I. Functional Testing Carried Out on the Vanilloid Receptor 1 (VRI/TRPV1 Receptor) […]
The number of cells in the suspension is set to 3×10^5 per mL and 150 μL of this suspension are in each case introduced into a recess in the cell culture plates coated as described hereinbefore. In the incubator the plates are left for two to three days at 37° C., 5% by volume of CO2 and 95% relative humidity. Subsequently, the cells are loaded with 2 μM of Fluo-4 and 0.01% by volume of Pluronic F127 (Molecular Probes Europe BV, Leiden, the Netherlands) in HBSS buffer (Hank's buffered saline solution, Gibco Invitrogen GmbH, Karlsruhe, Germany) for 30 min at 37° C., washed 3 times with HBSS buffer and after further incubation for 15 minutes at room temperature used for Ca^2+ measurement in a FLIPR assay. The Ca^2+-dependent fluorescence is in this case measured before and after the addition of substances (λex=488 nm, λem=540 nm). Quantification is carried out by measuring the highest fluorescence intensity (FC, fluorescence counts) over time.
The FLIPR protocol consists of 2 substance additions. First the compounds to be tested (10 μM) are pipetted onto the cells and the Ca^2+ influx is compared with the control (capsaicin 10 μM). This provides the result in % activation based on the Ca^2+ signal after the addition of 10 μM of capsaicin (CP). After 5 minutes' incubation, 100 nM of capsaicin are applied and the Ca^2+ influx is also determined.
Desensitising agonists and antagonists lead to suppression of the Ca^2+ influx. The % inhibition is calculated compared to the maximum achievable inhibition with 10 μM of capsazepine.
Triple analyses (n=3) are carried out and repeated in at least 3 independent experiments (N=4).
Starting from the percentage displacement caused by different concentrations of the compounds to be tested of general formula I, IC50 inhibitory concentrations which cause a 50-percent displacement of capsaicin were calculated. K, values for the test substances were obtained by conversion by means of the Cheng-Prusoff equation (Cheng, Prusoff; Biochem. Pharmacol. 22, 3099-3108, 1973).
The affinity of the compounds according to the invention for the vanilloid receptor 1 (VR1/TRPV1 receptor) was determined as described herein before (pharmacological method I).
The value after the “@” symbol indicates the concentration at which the inhibition (as a percentage) was respectively determined.

| SMILES | Ki [nM] | inhibition at 5 µM [%] |
| --- | --- | --- |
| CC(C(=O)NCc1ccc(C(F)(F)F)nc1-c1cccc(C#N)c1)c1ccc(CNS(C)(=O)=O)c(F)c1 (stereo not drawn) [Example 57, N-((2-(3-cyanophenyl)-6-(trifluoromethyl)pyridin-3-yl)methyl)-2-(3-fluoro-4-(methylsulfonamidomethyl)phenyl)propanamide] | 74 |  |
| CC(C(=O)NCc1ccc(C(F)(F)F)nc1-c1ccc(C#N)cc1)c1ccc(CNS(C)(=O)=O)c(F)c1 (stereo not drawn) [Example 58, N-((2-(4-cyanophenyl)-6-(trifluoromethyl)pyridin-3-yl)methyl)-2-(3-fluoro-4-(methylsulfonamidomethyl)phenyl)propanamide] | 45 |  |
| CC(C(=O)NCc1ccc(C(F)(F)F)nc1-c1cccc(O)c1)c1ccc(CNS(C)(=O)=O)c(F)c1 (stereo not drawn) [Example 59, 2-(3-fluoro-4-(methylsulfonamidomethyl)phenyl)-N-((2-(3-hydroxyphenyl)-6-(trifluoromethyl)pyridin-3-yl)methyl)propanamide] |  | 20 |
| COc1ccccc1-c1nc(C(F)(F)F)ccc1CNC(=O)C(C)c1ccc(CNS(C)(=O)=O)c(F)c1 (stereo not drawn) [Example 60, 2-(3-fluoro-4-(methylsulfonamidomethyl)phenyl)-N-((2-(2-methoxyphenyl)-6-(trifluoromethyl)pyridin-3-yl)methyl)propanamide] | 43 |  |
| COc1cccc(-c2nc(C(F)(F)F)ccc2CNC(=O)C(C)c2ccc(CNS(C)(=O)=O)c(F)c2)c1 (stereo not drawn) [Example 61, 2-(3-fluoro-4-(methylsulfonamidomethyl)phenyl)-N-((2-(3-methoxyphenyl)-6-(trifluoromethyl)pyridin-3-yl)methyl)propanamide] | 53 |  |
| COc1ccc(-c2nc(C(F)(F)F)ccc2CNC(=O)C(C)c2ccc(CNS(C)(=O)=O)c(F)c2)cc1 (stereo not drawn) [Example 62, 2-(3-fluoro-4-(methylsulfonamidomethyl)phenyl)-N-((2-(4-methoxyphenyl)-6-(trifluoromethyl)pyridin-3-yl)methyl)propanamide] | 59 |  |
| CCOc1cccc(-c2nc(C(F)(F)F)ccc2CNC(=O)C(C)c2ccc(CNS(C)(=O)=O)c(F)c2)c1 (stereo not drawn) [Example 64, N-((2-(3-ethoxyphenyl)-6-(trifluoromethyl)pyridin-3-yl)methyl)-2-(3-fluoro-4-(methylsulfonamidomethyl)phenyl)propanamide] | 28 |  |
| CC(C(=O)NCc1ccc(C(F)(F)F)nc1-c1cccnc1)c1ccc(CNS(C)(=O)=O)c(F)c1 (stereo not drawn) [Example 67, 2-(3-fluoro-4-(methylsulfonamidomethyl)phenyl)-N-((6-(trifluoromethyl)-2,3′-bipyridin-3-yl)methyl)propanamide] |  | 15 |
| COc1ccc(-c2nc(C(F)(F)F)ccc2CNC(=O)C(C)c2ccc(CNS(C)(=O)=O)c(F)c2)cn1 (stereo not drawn) [Example 68, 2-(3-fluoro-4-(methylsulfonamidomethyl)phenyl)-N-((6′-methoxy-6-(trifluoromethyl)-2,3′-bipyridin-3-yl)methyl)propanamide] | 72 |  |
| COc1cncc(-c2nc(C(F)(F)F)ccc2CNC(=O)C(C)c2ccc(CNS(C)(=O)=O)c(F)c2)c1 (stereo not drawn) [Example 69, 2-(3-fluoro-4-(methylsulfonamidomethyl)phenyl)-N-((5′-methoxy-6-(trifluoromethyl)-2,3′-bipyridin-3-yl)methyl)propanamide] |  | 49 |
| Cc1ncccc1-c1nc(C(F)(F)F)ccc1CNC(=O)C(C)c1ccc(CNS(C)(=O)=O)c(F)c1 (stereo not drawn) [Example 71, 2-(3-fluoro-4-(methylsulfonamidomethyl)phenyl)-N-((2′-methyl-6-(trifluoromethyl)-2,3′-bipyridin-3-yl)methyl)propanamide] |  | 19 |
| Cc1ccc(-c2nc(C(F)(F)F)ccc2CNC(=O)C(C)c2ccc(CNS(C)(=O)=O)c(F)c2)cn1 (stereo not drawn) [Example 72, 2-(3-fluoro-4-(methylsulfonamidomethyl)phenyl)-N-((6′-methyl-6-(trifluoromethyl)-2,3′-bipyridin-3-yl)methyl)propanamide] |  | 27 |
